Test results taken from patent US8981046B2, “Synthetic cell platforms and methods of use thereof” (The Regents of the University of California, priority 2007, dated 2015).

Columns and labels:
[1] = tested on: neural stem cells; assay: Flow cytometry binding of clonal peptide-displaying bacteria to neural stem cells; parameters: species or system rat; conditions: clonal bacterial populations after third round of selection
Description: This technology has also been used to identify peptides capable of binding to the surface of adult neural stem cells. Both N- and C-terminal peptide display libraries were screened on NSCs, with the first two rounds selected through centrifugal pelleting of NSCs to isolate bacterial clones displaying binding peptides, and the third round selected through FACS. Following the third round, numerous peptide clones were sequenced (˜30 novel sequences determined to date).
Three different, validated peptide libraries were pooled to generate a large library (>10^10 independent clones) and were used for selection and screening.^79 These libraries include a random 15-mer (—X15—) fused to either the N- or C-terminus of the CPX display scaffold and an N-terminal constrained library of the form X2CX7CX2. The library has been made intrinsically fluorescent using a bicistronic expression vector to enable co-expression of a green fluorescent protein optimized for FACS.
The bacterial library was screened for binding peptides. For the first two cycles, screening was again conducted by co-sedimentation, where as many as 10^8 NSCs suspended via mechanical disruption in 0.5 mM EDTA as described^82 were incubated with 10^10 bacteria prior to several gentle centrifugations and rinses. The resulting mixture was added directly to bacterial media (LB) for expansion of the binding clones. The second cycle repeated this process with 10-fold fewer bacteria for higher stringency. In the third cycle, after incubation with 10^6 NSCs and washing, cells were sorted (as in FIGS. 5-6) using a DAKO-Cytomation MoFlo flow cytometer in the UC Berkeley Cancer Center to stringently isolate bacteria that are bound to NSCs. The resulting sorted bacteria were expanded. Plasmid DNA was isolated from a number of individual clones (at least 100)^79 and subjected to DNA sequencing to identify the peptide responsible for binding to the NSC surface.
Bacterial peptide display libraries were constructed, as described above, and tested for binding capacity to neural stem cells. Clonal populations of the bacterial peptide display libraries after the third round of selection were analyzed via flow cytometry to measure the binding capacity of the clones. Sequences of the clones were determined through DNA sequence of the plasmid expressed by the bacteria. Table 5 presents amino acid sequences of peptides and the binding capacity to NSCs of bacterial clones displaying the peptides.

[2] = tested on: neural stem cells; assay: Initial NSC attachment on peptide-grafted IPNs (Cyquant, 6 hours); assay type: cell-based, rat; conditions: various grafting concentrations
Description: IPNs were grafted with RGD, 7C-9, and 7C-24 peptides at various concentrations. After allowing neural stem cells attach to the surface for 6 hours, the amount of cells was quantified with Cyquant, a fluorescent DNA-binding dye.

[3] = tested on: neural stem cells; assay: NSC proliferation on peptide-grafted IPNs after 5 days (Cyquant); assay type: cell-based, rat; conditions: for cell proliferation: Cyquant, normalized to cells seeded
Description: Cell proliferation was quantified on peptide-grafted IPN surfaces after 5 days with Cyquant. The cell number was normalized to the amount of cells seeded on the IPN surfaces.

[4] = tested on: neural stem cells; assay: qRT-PCR marker expression / differentiation of NSCs on peptide-modified hydrogels; assay type: cell-based, rat
Description: Stem cells are defined not only by their self-renewal but also their ability to undergo differentiation into one or more phenotypes. […] Therefore, the synthetic IPN, displaying an integrin-binding peptide, was able to substitute for laminin in supporting NSC proliferation and differentiation.
The effects of varying peptide identity and density on NSC differentiation were explored.
The box plots summarize the distribution of points, where the thick line signifies the median and the ends of the box are the 25th and 75th quartiles.

[5] = tested on: H1 hES cells; assay: H1 hES cell culture on peptide-conjugated IPN surfaces in NC-SFM; assay type: cell-based, human; conditions: for hESC culture outcome (Oct4, survival): H1 cells, NC-SFM, peptide-conjugated IPN
Description: To take an important step towards a fully chemically defined microenvironment, H1 hES cells were cultured,^17 for which a serum-free, defined medium has been developed. In addition, this feeder-free system involves culturing cells on tissue culture polystyrene coated with Matrigel, an ECM mixture of predominantly […], collagen IV, and heparan sulfate.^19, 82 Cells were grown in non-conditioned, serum free medium (NC-SFM), which consists of X-VIVO 10 (Cambrex, Walkersville, Md.) medium supplemented with 0.5 ng/mL TGF-β1 and 80 ng/mL FGF-2 (Invitrogen).
Cultures on Matrigel consisted of Oct4^+ hESC colonies interspersed with differentiated, Oct4-stromal cells derived from the hESCs, as previously described (note that the hESCs can be selectively passaged by timing the enzymatic digest).^82 H1 cells were also cultured in the NC-SFM on bsp-RGD(15) conjugated IPN surfaces (identical to those in FIGS. 3-4). […] Both HSF6 cells on the sIPN (FIG. 7) and H1 cells on the IPN were able to maintain Oct4 expression for 3 passages (˜10 days).

[6] = tested on: neural stem cells; assay: NSC adhesion and proliferation on peptide-modified IPNs; assay type: cell-based, rat
Description: Neural stem cells are typically cultured on surfaces consisting of a poly(styrene)-based material with a passively adsorbed, animal-derived extracellular matrix (ECM) protein such as laminin or fibronectin.^67, 69 However, both animal- and human-derived ECM or proteins likely contain variable splice and glycoforms, offer limited micro- and nano-scale control of solid-phase signaling, pose problems with lot to lot variability, and otherwise present problems for therapeutic application.^16, 70 The ability of a peptide-modified interpenetrating polymer network (IPN) synthesized from acrylamide (AAm), poly(ethylene glycol) monomethyl ether monomethacrylate (pEGMA), and acrylic acid (AAc) monomers to support NSC growth was explored. NSCs isolated from the adult rat hippocampus,^67 were seeded onto 15 amino-acid bone sialoprotein RGD peptide [bsp-RGD(15)]-modified IPNs at various cell densities over four orders of magnitude.
FIG. 3.a-d) Bright field images of neural stem cells grown on peptide-modified IPNs or laminin-I in proliferating media conditions (1.2 nM FGF-2). e) Growth curves for proliferation of neural stem cells as assayed by a total nucleic acid stain. Data represent mean±standard deviation of 3-5 samples. Surfaces not in the same group (*, §, †, or ‡) were statistically different from one another (p<0.05; ANOVA between groups with Tukey-Kramer Honestly Significant Difference post-hoc test).

[7] = tested on: Akt; assay: Akt activation in neural stem cells on peptide hydrogels (Western blotting); assay type: cell-based, rat; conditions: NSCs on biomimetic hydrogel
Description: The phosphoinositide-3 kinase (PI 3-kinase) signaling pathway, which can be activated by numerous cell surface receptors, has been implicated in regulating cell survival and proliferation in a number of contexts.^90-92 After ligation and activation of canonical receptors, phosphorylation of receptor tails on specific tyrosine residues recruits PI 3-kinase to the cell surface to phosphorylate phosphoinositide lipids. These lipids then recruit several kinases, including PDK1 and Akt. Phosphorylation of the latter by the former activates Akt, which then modulates a number of downstream effectors (such as Bad, mTOR, forkhead transcription factors, GSK-3β, and others) important in cell survival, proliferation, and other functions.^92, 93 Very importantly, PI 3-kinase and Akt signaling may be a general pathway important for stem cell proliferation and self-renewal. […] Finally, chemical or genetic inhibition of this pathway inhibits self-renewal, whereas overexpression of transducers in this pathway promotes self-renewal in a mitogen-independent fashion.
FIG. 8. […] Likewise relocalization of a PH-GFP genetic sensor to the cell surface acts as a sensor of PI 3-kinase signal activation after FGF-2 addition. An analogous genetic sensor of Akt based on FRET has been generated.^6

[8] = peptide hydrogel vs laminin, proliferating or differentiating media

| Sequence | % NSCs with Bacteria [1] [%] | further results |
| --- | --- | --- |
| GECFYYVMNTCVW [Clone 7C-6] | 61.8 |  |
| WVCNDLIHHFCVW [Co-15] | 70.9 |  |
| WQCGRFWCIHCLW [Co-19] | 50.6 |  |
| DHKFGLVMLNKYAYAG [Clone 15-2] | 75.9 |  |
| WVCLWRHRGDCSI [Co-12] | 74.3 |  |
| LEDAMGWALSWGHIW [Clone 15-6] | 70.2 |  |
| WDCGKKNAWMCIW [Co-5] | 67.4 |  |
| ESCWYQIMYKCAN [Clone 7C-2] | 55.2 |  |
| WVCIWERFKSCNE [Clone 7C-20] | 65.7 |  |
| VWCGMFGKRRCVT [Co-22] | 75.6 |  |
| GGCRWYAKWVCVW [Co-3] | 75.7 |  |
| QGCAFVTYWACIF [Co-16] | 71.9 |  |
| WTWESAFAGRWEVGD [Co-8] | 61.7 |  |
| WVCNKLGVYACEY [Clone 7C-19] | 20.5 |  |
| CGGNGEPRGETYRAY [bsp-RGE(15), negative control peptide] |  | cell attachment [2]: below the detection limit of the assay; cell proliferation [3]: little or no cells detached; neuronal differentiation / neuronal marker expression ([4]; as bsp-RGD(15) density was decreased and this peptide increased): neuronal differentiation decreased; hESC culture outcome (Oct4, survival) [5]: cells predominantly died; cell adhesion and morphology on peptide-modified IPN ([6]; proliferating media conditions (20 ng/ml FGF-2)): did not support attachment |
| WLCKGSNKYMCEW [Clone 7C-17] | 67.8 |  |
| MYCERDSKYWCIH [Co-21] | 70.9 |  |
| YMCMSRGDATCDV [Clone 7C-4] | 62.0 |  |
| WRCLGDGYHACVR [Co-10] | 72.7 |  |
| LNCAMYNACIW [Clone 7C-14] | 54.5 |  |
| WECAEESKFWCVF [Co-17] | 72.1 |  |
| LCCESYICALCHY [Clone 7C-11] | 37.7 |  |
| WFCLLGRSAYCVR [Clone 7C-3] | 71.9 |  |
| WWCKKPEYWYCIW [Co-18] | 71.3 |  |

| Sequence | % NSCs with Bacteria [1] [%] | further results |
| --- | --- | --- |
| WWCDMRGDSRCSG [Clone 7C-24] | 61.7 |  |
| RLCCWKTQYFCEI [Co-20] | 70.9 |  |
| RRELVRMTDWVWVSG [Clone 15-32] | 70.4 |  |
| WSCPKVNQYACFW [Co-2] | 74.8 |  |
| QCCQLRGDAVCNC [Clone 7C-15] | 54.0 |  |
| DLCTYGHLWLGNGRP [Clone 15-59] | 22.5 |  |
| SKCWGWTPYYCVA [Co-9] | 75.7 |  |
| CGGNGEPRGDTYRAY [bsp-RGD(15), 15 amino-acid bone sialoprotein RGD peptide] |  | cell proliferation [3]: much higher amount of cell proliferation than 7C-9 and 7C-24-grafted surfaces; activation of Akt [7]: activation of Akt to a greater extent than a surface displaying the negative control bsp-RGE(15) peptide; nestin expression (qRT-PCR) ([4]; 21 pmol·cm^−2 peptide hydrogel vs laminin, 1.2 nM FGF-2): statistically indistinguishable levels of nestin; GFAP expression (qRT-PCR) [4, 8]: equal levels; β-tubulin III expression (qRT-PCR) [4, 8]: equal levels; maintenance of Oct4 expression ([5]; H1 cells on the IPN (~10 days)): 3 passages; hESC culture outcome (Oct4, survival) [5]: high Oct4 levels in large hESC colonies; NSC proliferation ([6]; highest peptide density, vs laminin-coated surfaces, p<0.05): slightly faster cell proliferation than standard laminin-coated surfaces; cell adhesion on IPN with lower peptide density ([6]; lower or no bsp-RGD(15), proliferating media): cells did not adhere effectively |
| LECPGESKYYCIY [Co-11] | 72.7 |  |
| WNCIKGSSWACVW [Clone 7C-21] | 75.5 |  |
| SDWSVLLSCERWYCI [Clone 15-16] | 63.9 |  |
| WYCFRENKYVCVM [Clone 7C-1] | 75.2 |  |
| WLCLDKNCMACVW [Clone 7C-8] | 68.8 |  |
| IWCGSRFGCWCKP [Clone 7C-5] | 65.6 |  |
| FWCIRGEYWVCDR [Clone 7C-12] | 64.5 |  |
| LVCNRQNPWVCYI [Co-23] | 71.1 |  |
| WMCSGVQPNACVW [Clone 7C-22] | 46.9 |  |
| LECTERGDFNCFV [Clone 7C-7] | 47.8 |  |
| KLCCFDKGYYCMR [Clone 7C-9] | 71.3 | cell proliferation at similar surface peptide concentration ([3]; low peptide surface concentrations, vs RGD surfaces): slower proliferation |
| GFVLVWSYTCRCWGK [Clone 15-50] | 64.9 |  |
| SLCAAYNRWACIW [Co-1] | 73.8 |  |
| STCSWVSSYVCIM [Co-13] | 64.8 |  |
| ESGLKVMCMKYYCMA [Clone 15-52] | 63.3 |  |
